Results taken from article PMC6069857, “Effects of novel HDAC inhibitors on urothelial carcinoma cells” (Clinical Epigenetics, 2018).
pIC50: −log10 of the molar value.

Tests used:
UM-UC-3 = experiment: MTT viability assay (CC50); assay type: cell-based, human; settings: UM-UC-3, MTT, 72 h of incubation
Protocol: Further experiments were performed in VM-CUB1 and UM-UC-3 cells overexpressing HDAC4 (see below). Standard UCCs were obtained from the DSMZ (Braunschweig, Germany) and Dr. H.B. Grossmann HB (Houston, USA). For comparison, we investigated the spontaneously immortalized normal human bladder cell line HBLAK (provided by CELLnTEC, Bern, Switzerland) and the immortalized human embryonic kidney cell line HEK-293 (provided by Dr. V. Kolb-Bachofen, Duesseldorf, Germany). Cells were cultured and treated in DMEM GlutaMAX-I (Gibco, Darmstadt, Germany; UCCs and HEK-293) supplemented with 10% fetal calf serum (Biochrom, Berlin, Germany), except for HBLAK cultured in CnT-Prime Epithelial Culture Medium (CELLnTEC, Bern, Switzerland; HBLAK), at 37 °C and 5% CO2. STR (short tandem repeat) profiling via DNA fingerprint analysis was performed for all cell lines. Primary cultures of normal urothelial cells (UP) were established from healthy ureters removed during tumor nephrectomy and cultured as described. These cultures were used with informed consent of the patients and approval by the Ethics Committee of the Medical Faculty of the Heinrich-Heine-University, study number 1788. All inhibitors were dissolved in DMSO and stored as 10 mM stocks. […] The pan-HDACi inhibitor SAHA previously studied in detail was used for comparison. Solvent control cells were treated with equal amounts of DMSO.
(§1) For the determination of cellular mean cytotoxic concentration (CC50), UCCs, non-malignant control cells, and HDAC4-overexpressing clones were seeded in a 96-well format and treated once with a range of defined concentrations of the HDAC inhibitors. After 72 h, viability was quantified by NAD(P)H-dependent 3-(4,5-dimethylthiazol-2-yl)-2,5-diphenyltetrazolium bromide dye reduction assay (MTT, Sigma Aldrich, St. Louis, MO). CC50 values were estimated from three independent experiments by non-linear regression analysis (four-parameter logistic equation) using Prism 4.0 (Graph Pad) or Origin 8.0 (Origin Lab, Northhampton, GB). For time-dependent proliferation experiments, viability of untreated or inhibitor-treated cells was measured after 24, 48, and 72 h.

[1] = tested on: UC cell lines (VM-CUB1, UM-UC-3, 639-V); experiment: MTT viability assay, UC cell lines taken together; assay type: cell-based, human; settings: across VM-CUB1, UM-UC-3, 639-V; MTT, 72 h
Protocol: Further experiments were performed in VM-CUB1 and UM-UC-3 cells overexpressing HDAC4 (see below). Standard UCCs were obtained from the DSMZ (Braunschweig, Germany) and Dr. H.B. Grossmann HB (Houston, USA). For comparison, we investigated the spontaneously immortalized normal human bladder cell line HBLAK (provided by CELLnTEC, Bern, Switzerland) and the immortalized human embryonic kidney cell line HEK-293 (provided by Dr. V. Kolb-Bachofen, Duesseldorf, Germany). Cells were cultured and treated in DMEM GlutaMAX-I (Gibco, Darmstadt, Germany; UCCs and HEK-293) supplemented with 10% fetal calf serum (Biochrom, Berlin, Germany), except for HBLAK cultured in CnT-Prime Epithelial Culture Medium (CELLnTEC, Bern, Switzerland; HBLAK), at 37 °C and 5% CO2. […]
as §1, with “CC50 values were estimated from three independent experiments by non-linear regression analysis (four-parameter logistic equation) using Prism 4.0 (Graph Pad) or Origin 8.0 (Origin Lab, Northhampton, GB).” left out

[2] = tested on: three UCCs (VM-CUB1, UM-UC-3, 639-V); experiment: High-content analysis-based fluorescent live/dead assay, three UCCs together; assay type: cell-based, human; settings: HCA live/dead assay, 72 h
Protocol: Live and dead cells were assayed by high-content analysis (HCA). […] After 72 h of treatment, cells were stained with a mixture of Hoechst 33342 (Sigma Aldrich, St. Louis, MO), calcein AM (Merck Millipore, Germany), and propidium iodide (Santa Cruz Biotechnology, Heidelberg) for cell nuclei, live and dead cells. The staining solution was replaced by PBS after 20 min. Images were acquired using ArrayScan XTI Live High Content Platform (Thermo Fisher Scientific Inc., USA) using excitation filters of 386, 485, and 560 nm for Hoechst 33342, calcein AM, and propidium iodide, respectively. The results were analyzed using HCS Studio Cellomics Scan (Thermo Fisher Scientific Inc., USA).

[3] = tested on: UCCs VM-CUB1, UM-UC-3, and 639-V; experiment: Western blot of cleaved PARP; assay type: cell-based, human; settings: 19i 2 μM, 48 h; especially in 639-V
Protocol: Total protein extraction, purification of histones, and Western blot analysis were performed as previously described. Briefly, cells were incubated for 30 min on ice in RIPA-buffer (150 mM NaCl, 1% Triton X-100, 0.5% desoxycholate, 1% Nonidet P-40, 0.1% SDS, 1 mM EDTA, 50 mM TRIS (pH 7.6)) containing 10 μl/ml protease inhibitor cocktail (#P-8340, Sigma Aldrich, St. Louis, MO). Histones were extracted for detection of histone H3 and H4 acetylation by a modified published protocol employing sulfuric acid extraction and TCA-precipitation. Concentrations of total protein and histones were determined by BCA protein assay (Thermo Fisher Scientific, Carlsbad, CA). Subsequently, total cell proteins (15 μg) or extracted histones (2 μg) were separated by SDS-PAGE (total proteins 10–12% gels, histones 15% gels), transferred to PVDF membranes (Merck Millipore, Berlin, Germany), and were incubated with primary antibodies (at RT for 1 h or 4 °C overnight, see Additional file 3: Table S2) following blocking with 5% non-fat milk or BSA (bovine serum albumin) in TBST (150 mM NaCl, 10 mM TRIS, pH 7.4 and 0.1% Tween-20). […]

[4] = tested on: VM-CUB1 and UM-UC-3 cells; experiment: Nuclear morphology analysis (DAPI, rhodamine phalloidin); assay type: cell-based, human; settings: 19i 2 μM, 24 or 48 h
Protocol: As previously described, after fixation with 4% formaldehyde, cells were permeabilized (0.3% Triton X100 in PBS, 10 min, RT), blocked (1% BSA in PBS, 30 min, RT), and subsequently incubated for 1 h at RT with 14 nM Rhodamine Phalloidin in blocking solution. Following counter-staining of nuclei with 1 μg/ml DAPI (4′,6-diamidino-2-phenylindole), cells were mounted with fluorescence mounting medium (DAKO, Glostrup, Denmark). For each treatment option and sample, 500 cells were counted and the amount of mitosis and micronuclei was quantified using a Nikon Eclipse 400 microscope (Nikon, Tokyo, Japan).

HDAC5 = biological target: T1, HDAC5 (Homo sapiens, UniProt Q9UQL6); settings: older assays, given for HDAC4/5 together; cited from earlier work
T1 construct: purchased Reaction Biology Corp. (Malvern, PA)

HDAC1 = HDAC1 (Homo sapiens, UniProt Q13547); experiment: In vitro fluorescence-based HDAC inhibition assay (Reaction Biology); settings: read-out: IC50 HDAC1; experiment performed once
HDAC6 = HDAC6 (Homo sapiens, UniProt Q9UBN7); experiment: as above; settings: read-out: IC50 HDAC6; experiment performed once
HDAC8 = HDAC8 (Homo sapiens, UniProt Q9BY41); experiment: as above; settings: read-out: IC50 HDAC8; experiment performed once
HDAC10 = HDAC10 (Homo sapiens, UniProt Q969S8); experiment: as above; settings: read-out: IC50 HDAC10; experiment performed once
HDAC10, sequence (Q969S8 whole entry): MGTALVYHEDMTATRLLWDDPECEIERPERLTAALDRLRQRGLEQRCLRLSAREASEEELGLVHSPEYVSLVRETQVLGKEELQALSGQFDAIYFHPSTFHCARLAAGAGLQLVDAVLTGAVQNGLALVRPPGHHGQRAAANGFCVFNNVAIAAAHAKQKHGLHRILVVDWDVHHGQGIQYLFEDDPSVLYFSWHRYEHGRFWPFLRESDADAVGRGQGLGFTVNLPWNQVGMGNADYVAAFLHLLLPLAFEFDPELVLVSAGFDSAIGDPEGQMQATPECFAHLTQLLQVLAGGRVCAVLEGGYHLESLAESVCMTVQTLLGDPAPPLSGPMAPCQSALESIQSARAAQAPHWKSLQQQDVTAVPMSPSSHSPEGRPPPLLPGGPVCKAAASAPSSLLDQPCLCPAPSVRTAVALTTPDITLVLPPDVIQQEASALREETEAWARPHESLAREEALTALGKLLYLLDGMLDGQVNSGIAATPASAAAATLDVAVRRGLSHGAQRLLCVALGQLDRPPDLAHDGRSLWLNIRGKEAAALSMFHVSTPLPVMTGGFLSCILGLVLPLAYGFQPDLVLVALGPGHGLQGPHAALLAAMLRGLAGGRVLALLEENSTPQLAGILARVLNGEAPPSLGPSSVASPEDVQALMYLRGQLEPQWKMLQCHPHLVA

HDAC1, sequence (Q13547 whole entry): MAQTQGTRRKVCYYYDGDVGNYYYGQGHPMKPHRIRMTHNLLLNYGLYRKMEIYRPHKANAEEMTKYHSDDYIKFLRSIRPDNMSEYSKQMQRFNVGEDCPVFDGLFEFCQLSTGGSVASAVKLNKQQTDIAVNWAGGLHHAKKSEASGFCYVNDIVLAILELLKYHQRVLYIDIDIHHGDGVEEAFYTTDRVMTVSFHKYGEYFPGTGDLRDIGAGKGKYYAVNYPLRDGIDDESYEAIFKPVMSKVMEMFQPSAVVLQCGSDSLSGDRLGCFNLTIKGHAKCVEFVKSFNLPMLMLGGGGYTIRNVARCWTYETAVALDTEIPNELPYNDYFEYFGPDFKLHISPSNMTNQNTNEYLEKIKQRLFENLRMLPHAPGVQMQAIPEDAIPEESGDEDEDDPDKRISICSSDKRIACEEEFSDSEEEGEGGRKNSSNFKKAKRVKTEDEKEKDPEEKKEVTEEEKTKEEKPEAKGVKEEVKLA
HDAC6, sequence (Q9UBN7 whole entry): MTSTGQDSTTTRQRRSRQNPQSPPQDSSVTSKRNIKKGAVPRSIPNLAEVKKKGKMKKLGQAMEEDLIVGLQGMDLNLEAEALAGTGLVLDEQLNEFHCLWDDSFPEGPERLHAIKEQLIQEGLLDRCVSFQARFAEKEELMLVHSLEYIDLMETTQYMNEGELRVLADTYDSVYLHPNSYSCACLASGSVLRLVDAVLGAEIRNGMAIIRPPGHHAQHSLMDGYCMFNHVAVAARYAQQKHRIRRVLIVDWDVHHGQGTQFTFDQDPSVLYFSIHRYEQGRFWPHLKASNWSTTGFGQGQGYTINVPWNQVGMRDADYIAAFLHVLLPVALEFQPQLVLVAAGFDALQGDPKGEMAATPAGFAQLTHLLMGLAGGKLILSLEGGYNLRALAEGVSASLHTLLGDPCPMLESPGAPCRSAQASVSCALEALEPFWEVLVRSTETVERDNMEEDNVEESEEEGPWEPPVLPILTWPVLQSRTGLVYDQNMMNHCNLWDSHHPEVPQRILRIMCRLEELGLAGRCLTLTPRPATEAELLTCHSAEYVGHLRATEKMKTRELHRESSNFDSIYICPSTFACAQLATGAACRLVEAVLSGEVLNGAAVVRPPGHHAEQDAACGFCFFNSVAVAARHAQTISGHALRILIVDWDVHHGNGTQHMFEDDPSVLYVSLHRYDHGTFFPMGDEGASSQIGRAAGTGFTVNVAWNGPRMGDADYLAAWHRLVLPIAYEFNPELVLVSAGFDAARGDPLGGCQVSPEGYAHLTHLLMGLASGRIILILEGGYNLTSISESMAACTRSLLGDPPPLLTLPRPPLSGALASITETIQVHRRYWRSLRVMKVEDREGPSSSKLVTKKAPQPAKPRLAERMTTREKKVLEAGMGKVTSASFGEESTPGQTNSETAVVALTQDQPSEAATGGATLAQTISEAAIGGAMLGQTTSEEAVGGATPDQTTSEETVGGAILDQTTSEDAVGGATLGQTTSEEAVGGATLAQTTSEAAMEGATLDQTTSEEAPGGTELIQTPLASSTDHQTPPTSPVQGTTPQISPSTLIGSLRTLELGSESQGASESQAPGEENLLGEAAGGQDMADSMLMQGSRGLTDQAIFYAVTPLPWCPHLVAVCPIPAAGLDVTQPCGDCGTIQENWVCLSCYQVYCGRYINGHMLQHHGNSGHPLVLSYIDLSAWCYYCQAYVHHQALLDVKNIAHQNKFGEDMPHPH
T1 sequence (Q9UQL6 whole entry): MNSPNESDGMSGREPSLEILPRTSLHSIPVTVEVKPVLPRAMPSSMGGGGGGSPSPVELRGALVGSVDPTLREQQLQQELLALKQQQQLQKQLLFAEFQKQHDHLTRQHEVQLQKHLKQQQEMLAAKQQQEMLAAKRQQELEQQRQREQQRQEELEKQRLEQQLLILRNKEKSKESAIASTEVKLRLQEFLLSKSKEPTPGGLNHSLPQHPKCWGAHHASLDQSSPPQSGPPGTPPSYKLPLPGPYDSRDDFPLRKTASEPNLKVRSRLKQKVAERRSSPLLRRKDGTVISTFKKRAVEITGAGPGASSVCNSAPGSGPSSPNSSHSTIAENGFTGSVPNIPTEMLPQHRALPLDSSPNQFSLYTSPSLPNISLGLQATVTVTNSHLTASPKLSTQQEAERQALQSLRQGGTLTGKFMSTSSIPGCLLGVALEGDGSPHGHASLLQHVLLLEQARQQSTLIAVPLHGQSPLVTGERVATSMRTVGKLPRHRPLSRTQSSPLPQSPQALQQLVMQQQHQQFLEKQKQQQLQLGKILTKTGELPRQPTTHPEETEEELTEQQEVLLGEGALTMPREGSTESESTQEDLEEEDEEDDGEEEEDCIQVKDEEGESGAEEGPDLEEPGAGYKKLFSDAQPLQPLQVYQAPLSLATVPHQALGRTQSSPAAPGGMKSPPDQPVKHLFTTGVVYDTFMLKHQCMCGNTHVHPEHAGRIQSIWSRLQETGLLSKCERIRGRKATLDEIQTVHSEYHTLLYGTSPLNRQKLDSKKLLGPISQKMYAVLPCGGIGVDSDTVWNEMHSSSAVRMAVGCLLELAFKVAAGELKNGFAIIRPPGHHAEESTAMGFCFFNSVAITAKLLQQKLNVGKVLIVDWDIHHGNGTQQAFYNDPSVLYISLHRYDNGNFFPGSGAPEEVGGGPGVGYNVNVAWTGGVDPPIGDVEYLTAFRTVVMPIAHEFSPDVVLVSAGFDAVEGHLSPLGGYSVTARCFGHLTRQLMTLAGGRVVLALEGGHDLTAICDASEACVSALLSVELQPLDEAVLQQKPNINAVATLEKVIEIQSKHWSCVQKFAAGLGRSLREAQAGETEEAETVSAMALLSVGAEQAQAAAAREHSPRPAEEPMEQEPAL
HDAC8, sequence (Q9BY41 whole entry): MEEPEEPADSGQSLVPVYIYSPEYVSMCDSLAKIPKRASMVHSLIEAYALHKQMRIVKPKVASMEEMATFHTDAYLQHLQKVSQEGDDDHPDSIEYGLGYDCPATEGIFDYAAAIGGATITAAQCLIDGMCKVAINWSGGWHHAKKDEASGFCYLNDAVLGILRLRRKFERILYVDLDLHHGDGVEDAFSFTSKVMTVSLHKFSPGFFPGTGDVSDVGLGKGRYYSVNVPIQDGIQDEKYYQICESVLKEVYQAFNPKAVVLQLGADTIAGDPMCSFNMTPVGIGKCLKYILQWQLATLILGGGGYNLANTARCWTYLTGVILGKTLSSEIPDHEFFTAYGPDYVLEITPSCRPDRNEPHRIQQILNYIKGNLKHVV

With Cc1cc(C)cc(C(=O)NOCCCCCC(=O)NO)c1 [19i] as the molecule, how does the CC50 (UM-UC-3) read?
The CC50 was 820 nM.

And the CC50 [1]?
Its CC50 is roughly 1000 nM.

What about the CC50 [2] of the same molecule?
Its CC50 is less than 1000 nM.

And the PARP cleavage [3]?
Its PARP cleavage is “augmented”.

What about the number of mitoses [4] of the same molecule?
The number of mitoses was “decreased sharply”.

What about the “percentage of cells with micronuclei” value [4] of the same molecule?
The value was “increased”.

And the “in vitro IC50 HDAC5” value (HDAC5)?
Its value is “nanomolar range”.

What about the pIC50 (HDAC1) of the same molecule?
The pIC50 was 6.50.

And the pIC50 (HDAC6)?
Its pIC50 is 7.49.

And the pIC50 (HDAC8)?
Its pIC50 is 5.55.

And the pIC50 (HDAC10)?
Its pIC50 is 6.31.
